# Experimental data reported in paper PMC13489962, “Small-molecule modulation of β-arrestins” (Nature, 2026).
# Molecular target: T1, βARR1 E134A (Rattus norvegicus, UniProt P29066, E134A)
# T1 construct: βARR1 or βARR2 construct, with their C terminus truncated (at amino acid 393 or 394, respectively); GST (pGEX4T1) (N, cleaved yes); made in house; host or cells: E. coli BL21 (DE3) pLysS
# Assay: ITC binding to βARR1 mutant E134A
# Conditions: 25 °C
# Procedure: The expression and purification of β-arrestins have been described previously[44],[62]–[64]. In brief, E. coli BL21 (DE3) pLysS cells (New England Biolabs: C2527I) carrying pGEX4T1-Rattus norvegicus βARR1 or βARR2 construct, with their C terminus truncated (at amino acid 393 or 394, respectively), were cultured in Terrific Broth (Teknova) medium at 37 °C. After OD600 reached 0.6–0.8, the cells were induced with 0.1 mM isopropyl-β-D-thiogalactopyranoside (IPTG) at 18 °C overnight. Bacteria were collected by centrifugation (4,000 rpm), and cell pellets were resuspended in lysis buffer (20 mM HEPES, pH 8, 150 mM NaCl, 10% glycerol, 1 mM EDTA, 0.2 mM dithiothreitol (DTT), 1 mM phenylmethylsulfonyl fluoride, and 1 mM benzamidine) at 4 °C for 1 h. […] Eluted fractions were analysed by SDS–PAGE, pooled, concentrated using 30 kDa MWCO Amicon Ultra-15 Centrifugal Filter devices, flash-frozen in liquid nitrogen, and stored in aliquots at −80 °C. […] Protein concentrations for each protein were determined by ultraviolet absorption at 280 nm and extinction coefficients estimated using the ExPASy ProtParam tool[67].
# ITC measurements were performed on a MicroCal iTC200 system at 25 °C. […] Protein concentrations were determined by spectrophotometry at 280 nm, using extinction coefficients calculated from each protein sequence via the ProtParam program. […]
# T1 sequence (P29066 1-393 E134A): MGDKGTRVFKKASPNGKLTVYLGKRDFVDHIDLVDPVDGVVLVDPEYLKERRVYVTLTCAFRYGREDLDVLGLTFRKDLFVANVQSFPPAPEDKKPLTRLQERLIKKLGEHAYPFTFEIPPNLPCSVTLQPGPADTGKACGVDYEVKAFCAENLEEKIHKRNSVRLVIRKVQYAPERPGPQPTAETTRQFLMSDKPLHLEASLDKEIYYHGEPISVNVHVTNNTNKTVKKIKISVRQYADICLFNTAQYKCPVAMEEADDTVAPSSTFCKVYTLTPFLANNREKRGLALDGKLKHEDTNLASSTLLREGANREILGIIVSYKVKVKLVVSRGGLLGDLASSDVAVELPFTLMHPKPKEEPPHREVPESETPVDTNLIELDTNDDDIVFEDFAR
structure (smiles),measurement,value
"C=C1C(=O)[C@]23[C@H](O)[C@H]1CC[C@H]2[C@@]12CO[C@]3(O)[C@@H](O)[C@@H]1C(C)(C)CC[C@@H]2O [Cmpd-5, (1S,4aR,5S,6S,6aR,9S,11aS,11bS,14R)-1,5,6,14-tetrahydroxy−4,4-dimethyl-8-methylenedecahydro-1H-6,11b-(epoxymethano)-6a,9-methanocyclohepta[a]naphthalen-7(8H)-one]",Kd,2200 ± 500 nM
same,"ΔH, βARR1 E134A",-1.2 kcal/mol
